One data set has as its system T-cell proliferation. Put plainly: T-Lymphocyte proliferation assay (PHA-activated PBMCs, Alamar blue). Type of data set: cell-based. As to conditions: human PBMC T-cells activated with phytohemagglutinin-L, 48 h, in vitro; for IC50: T-cell, read-out: IC50 against T-cell proliferation.
Another data set relates to TNF-α production. The experiment in a line: Cytokine inhibition assay (TNF-α by ELISA in LPS-stimulated, PMA-differentiated THP-1 cells). Type of data set: cell-based, human. As to conditions: for IC50: Homo sapiens, read-out: IC50 against TNF-α production.
Data set [1] deals with nitric oxide (NO) production. Put plainly: Nitric oxide assay (LPS-induced J774.2 macrophages, Griess method). Type of data set: cell-based, mouse.
Data set [2] concerns the target T1, human placental aromatase enzyme (Homo sapiens, UniProt P11511).
T1 construct: from tissue; host or cells: human placenta
T1 sequence (P11511 1-503): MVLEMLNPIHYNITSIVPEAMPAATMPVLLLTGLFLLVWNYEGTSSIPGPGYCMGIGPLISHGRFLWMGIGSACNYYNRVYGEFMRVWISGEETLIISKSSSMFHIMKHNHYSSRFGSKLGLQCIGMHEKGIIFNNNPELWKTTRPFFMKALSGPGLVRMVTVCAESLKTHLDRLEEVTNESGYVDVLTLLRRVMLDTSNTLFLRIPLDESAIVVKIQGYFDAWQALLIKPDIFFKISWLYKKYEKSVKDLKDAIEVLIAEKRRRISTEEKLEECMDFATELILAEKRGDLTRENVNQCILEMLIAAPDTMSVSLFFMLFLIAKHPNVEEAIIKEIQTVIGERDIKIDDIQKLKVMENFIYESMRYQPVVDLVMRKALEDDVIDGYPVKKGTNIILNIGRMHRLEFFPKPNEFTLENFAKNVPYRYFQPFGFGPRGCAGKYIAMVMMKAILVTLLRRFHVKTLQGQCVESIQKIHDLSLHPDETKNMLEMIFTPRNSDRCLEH
Put plainly: Human placental aromatase inhibition assay. Type of data set: biochemical.

Data set [3] is described as follows: Cytotoxicity against BJ normal cell line. As to conditions: human, BJ normal human fibroblast cells.
Setting [4] is: THP-1 cells differentiated with PMA, LPS-stimulated, 4 h, in vitro.
[5] abbreviates: J774.2 mouse macrophages, LPS-induced, in vitro, read-out: IC50 against nitric oxide (NO) production.
The mark [6] stands for this setting: testosterone to 17β-estradiol conversion, in vitro, read-out: IC50 against human placental aromatase enzyme.
The mark [7] stands for this setting: Mus musculus, J774.2, read-out: IC50 against nitric oxide (NO) production.

Counter-ions that a name gives are not always drawn. Like-named read-outs stand apart in the source and are kept apart here.

From patent US20210369740A1, “Synthesis of Anti-inflammatory and Anti-cancer Agents through Fungal Transformation of Mibolerone” (priority 2021, published 2021) come the findings set out here.

As to `C[C@@H]1CC2=CC(=O)CC[C@@H]2[C@H]2CC[C@@]3(C)[C@@H](CC[C@]3(C)O)[C@@H]21` [Compound 1, Mibolerone], the IC50 came to 6.55 ± 0.6 µM with T-cell proliferation; 115.8 ± 0.7 µM in the data set with TNF-α production (setting [4]); 46 ± 2.4 µM in data set [1] (setting [5]); 0.372 ± 0.009 µM in data set [2]; 80 ± 2.1 µM in data set [3].

In the case of `CC1=CC2=CC(=O)CC[C@@H]2[C@H]2CC[C@@]3(C)[C@@H](CC[C@]3(C)O)[C@H]12` [Compound 2, 17β-hydroxy-7α,17α-dimethylestr-4,6-diene-3-one], the results for the IC50 (in the data set on T-cell proliferation; in data set [1] (setting [5]); in data set [2] (setting [6])) were 3.83 ± 0.3 µM, 54.4 ± 0.3 µM and 0.31 ± 0.028 µM, respectively. For the same compound, the “IC50 against TNF-α production” value in the data set on TNF-α production (setting [4]) is “inactive”.

On to `C[C@@H]1Cc2cc(O)ccc2[C@@H]2[C@@H]1[C@@H]1CC[C@](C)(O)[C@@]1(C)C[C@@H]2O` [Compound 3, 11β,17β-dihydroxy-7α,17α-dimethyl-estra-1,3,5-triene-3-one], for which the IC50 in the data set with T-cell proliferation is 4.24 ± 0.2 µM; in data set [1] (setting [7]), 49.1 ± 0.4 µM; in data set [2] (setting [6]), 0.317 ± 0.012 µM. In the data set with TNF-α production (setting [4]), the “IC50 against TNF-α production” value was “inactive”.

As for `C[C@@H]1C[C@H]2C[C@H](O)CC[C@]2(O)[C@H]2CC[C@@]3(C)[C@@H](CC[C@]3(C)O)[C@H]12` [Compound 4, 3α,10β,17β-trihydroxy-7α,17α-dimethyl-5α-estrane], in the data set on T-cell proliferation, the “IC50 against T-cell proliferation” value was “inactive”. Besides, the IC50 turned out to be 28.5 ± 0.07 µM in the data set with TNF-α production (THP-1, 4 h); 58 ± 0.1 µM in data set [1] (setting [7]); 0.072 ± 0.001 µM in data set [2] (setting [6]).

On to `C[C@@H]1C(=O)C2CC(=O)CC[C@@H]2[C@H]2CC[C@@]3(C)[C@@H](CC[C@]3(C)O)[C@@H]21` (stereo partly drawn) [Compound 5, 17β-hydroxy-7α,17α-dimethyl-5α-estrane-3,6-dione], for which, in the data set on T-cell proliferation, the “IC50 against T-cell proliferation” value is “inactive”. Moreover, the “IC50 against TNF-α production” value in the data set on TNF-α production (setting [4]) is “inactive”. The IC50 in data set [1] (setting [5]) amounted to 52.7 ± 0.3 µM. Moreover, the “IC50 against human placental aromatase enzyme” value in data set [2] (testosterone to 17β-estradiol conversion, in vitro) was “inactive”.

For `CNC(=N)NCCC[C@H](N)C(=O)O` [L-NMMA, NG-Monomethyl-L-arginine, monoacetate salt, reference compound], the IC50 in data set [1] (setting [5]) turned out to be 128.2 ± 0.8 µM.

Consider `CC(=O)CCCCn1c(=O)c2c(ncn2C)n(C)c1=O` [pentoxifylline, reference compound], for which the IC50 in the data set with TNF-α production (THP-1, 4 h) turned out to be 341 ± 2.1 µM.

As for `C[C@]12C=CC(=O)C=C1CC[C@@H]1[C@@H]2[C@@H](O)C[C@@]2(C)[C@H]1CC[C@]2(O)C(=O)CO` [prednisolone, reference compound], the IC50 with T-cell proliferation came to 9.75 ± 0.03 µM.
